# What was measured:
# cPLA2 = target: T1, cPLA2 (Homo sapiens, UniProt P47712); assay: Coumarin Assay (cPLA2 inhibition); format: biochemical
# T1 sequence (P47712 1-749): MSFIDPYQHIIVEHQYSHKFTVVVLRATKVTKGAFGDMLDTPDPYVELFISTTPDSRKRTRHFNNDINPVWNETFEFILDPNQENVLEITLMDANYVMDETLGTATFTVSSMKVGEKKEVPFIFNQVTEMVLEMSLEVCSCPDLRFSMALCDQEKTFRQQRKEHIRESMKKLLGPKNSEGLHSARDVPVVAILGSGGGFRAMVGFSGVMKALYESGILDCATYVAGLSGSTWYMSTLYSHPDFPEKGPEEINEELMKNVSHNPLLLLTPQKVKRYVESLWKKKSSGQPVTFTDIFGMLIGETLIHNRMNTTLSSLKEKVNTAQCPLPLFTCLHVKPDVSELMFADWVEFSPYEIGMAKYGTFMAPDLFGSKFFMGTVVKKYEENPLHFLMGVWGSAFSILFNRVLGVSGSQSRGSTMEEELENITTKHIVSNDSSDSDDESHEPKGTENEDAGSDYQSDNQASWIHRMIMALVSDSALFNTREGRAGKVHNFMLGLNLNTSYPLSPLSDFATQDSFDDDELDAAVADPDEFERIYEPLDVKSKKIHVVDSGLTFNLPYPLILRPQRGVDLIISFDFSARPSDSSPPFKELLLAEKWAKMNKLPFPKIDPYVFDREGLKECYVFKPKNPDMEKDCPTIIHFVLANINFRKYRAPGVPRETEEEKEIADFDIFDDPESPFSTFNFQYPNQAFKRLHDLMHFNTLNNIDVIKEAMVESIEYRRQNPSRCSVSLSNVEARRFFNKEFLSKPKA
# Summary of the method: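 Percent inhibition at the stated concentration, from the rate of 460 nm emission rise (360 nm excitation) per minute. Reaction started by adding 4 μg enzyme to compound and 60 μM 7-hydroxycoumarinyl 6-heptenoate in Hepes buffer pH 7.5 with 1 mM EDTA.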
# [1] = test system: Rat Carrageenan-Induced Footpad Edema; assay: Rat Carrageenan-Induced Footpad Edema Test; format: in vivo, male Sprague Dawley rats; details: PO, footpad volume 3 hours after carrageenan
smiles,measurement,setting,value
O=C(O)C(=O)c1cn(C(c2ccccc2)c2ccccc2)c2ccc(NC(=O)C3CCCC3)cc12 [Example 115],PERCENT INHIBITION @,cPLA2; CONCENTRATION 50 micromolar,89%
same,PERCENT INHIBITION @,cPLA2; CONCENTRATION 100 micromolar,20%
same,PERCENT INHIBITION @,cPLA2; CONCENTRATION 250 micromolar,50%
same,PERCENT INHIBITION,[1]; 2 mg/Kg,1.24%
same,PERCENT INHIBITION,[1]; 10 mg/Kg,18.46%
